Usually MIC stands for the lowest concentration that inhibits growth of the organism.

≈ marks a conversion by molar mass, not a printed value. Where “and” joins values, the source holds several entries; their conditions need not be identical. Equal values may be shown once.

Series [1] relates to C. albicans100 (MDR00100). Description: MIC and MFC by broth microdilution. The format is cell-based, Candida albicans. (In broth dilution the organism is exposed to a series of concentrations in liquid medium.)
In series [2] the test system is C. albicans200 (MDR00200). The series can be described thus: MIC and MFC by broth microdilution. Type of series: cell-based, Candida albicans.
For series [3], the system named is C. albicans200. The series can be described thus: Time-kill kinetic assay. Type of series: cell-based, Candida albicans.
Series [4] concerns C. albicans200 (MDR00200). The series can be described thus: Agar well-diffusion antimicrobial sensitivity assay. Type of series: cell-based, Candida albicans. Particulars: Candida albicans, read-out: Inhibition Zone (IZ). (In general: A growth-free zone around the sample is the usual read-out of agar diffusion tests.)
The test system of series [5] is C. albicans100. Description: Single-step resistance selection. The format is cell-based, Candida albicans. Particulars: 4 × MIC, 48 h.
Series [6] deals with C. albicans200. The series can be described thus: Single-step resistance selection. Type of series: cell-based, Candida albicans. Particulars: 4 × MIC, 48 h.
Series [7] deals with clinical pathogenic isolates. The series can be described thus: Single-step resistance selection, whole panel. Type of series: cell-based. Particulars: 4 × MIC.
The test system of another series is RBCs. The series can be described thus: Hemolytic assay. The format is cell-based. As to conditions: human RBCs; compounds 1.0 mg/mL; Triton X-100 0.1% v/v; 37 °C, 35 min.
Series [8] has as its system C. albicans100 (MDR00100). Description: Agar well-diffusion antimicrobial sensitivity assay. The format is cell-based, Candida albicans. Particulars: Candida albicans, read-out: Inhibition Zone (IZ).
Series [9] concerns C. albicans100. Description: Time-kill kinetic assay. Type of series: cell-based, Candida albicans.

Take `CC(=O)N1CCN(c2ccc(OCC3COC(Cn4ccnc4)(c4ccc(Cl)cc4Cl)O3)cc2)CC1` (stereo not shown) [KCA, Ketoconazole, reference compound]: the “MIC (mean ± SEM)” value in [1] (C. albicans100, broth microdilution) was 0.49 ± 0.3 µg/mL (≈ 0.922 µM). Moreover, the MFC/MIC in [1] (C. albicans100, ratio in parentheses) turned out to be 1; in series [2] (C. albicans200, ratio in parentheses), 0.5. Besides, the MIC in [1] (Candida albicans, read-out: MIC (mean ± SEM), C. albicans100, broth microdilution) was 0.49 µg/mL (≈ 0.922 µM); in series [2] (Candida albicans, read-out: MIC (mean ± SEM), C. albicans200, broth microdilution), 0.45 ± 0.3 µg/mL (≈ 0.847 µM). Further, the “time of reduction in the colony-forming units” value in the series on C. albicans200 [3] and in the series on C. albicans100 [9] was 48 h each time. Besides, the zone of inhibition at 100000 µg/mL was 24 ± 0.54 mm in series [4] and 21 ± 0.23 mm in series [8]. The “Single-step resistance frequency (mutation frequency)” value in the series on C. albicans100 [5] is on record as 3.42 × 10^–9; in the series on C. albicans200 [6], 3.19 × 10^–8. In addition, the “mutation frequency, range over panel” value in series [7] is on record as 3.19 × 10^–8 to 3.42 × 10^–9. For the same compound, the “%lysis of RBCs” value with RBCs was 15.38% and 15.38 ± 0.32%.

Values taken from publication PMC8851638 (ACS Omega, 2022).
